# Assays:
# [1] = system: opioid receptor delta (DOR); assay: Expression of DOR in epidermis, tissue microarray immunohistochemical labeling; type: cell-based, human; details: RHE treated with PMA at 2 μg, compared to non-treated RHE
# Experimental: The protein expression of the opioid receptor delta (DOR) was analyzed using a “tissue microarray” (TMA) composed of numerous skin-related cellular models in order to identify the best models for further studies.
# Formaldehyde-fixed tissues were dehydrated in multiple baths with increasing concentration of ethanol and then embedded in “Paraplast X-tra” paraffin. The transversal sections were carried out using a microtome (5 μm thickness) and kept at room temperature until staining.
# The sections were deparaffinized then the antigenic sites were retrieved using specific buffers (pH6 and pH9). The sections were then washed and incubated with hydrogen peroxide. After an additional washing step, the sections were incubated with the primary antibody (anti-DOR). […] After peroxidase-conjugated streptavidine and peroxidase substrate addition, nuclei were counter-stained with a solution of haematoxylin. The slices were washed in ultra-pure water and mounted in aqueous medium.
# Sections were observed using a NIKON E400 microscope. Images were captured with a NIKON DS-Ri1 and processed with NIS-Elements 3.10 software.
# delta2 opioid receptor = molecular target: T1, delta2 opioid receptor (Mus musculus, UniProt P32300); assay: Agonist effect at the delta2 opioid receptor (DOP), cell impedance; type: cell-based; details: percent of control specific agonist response (DPDPE)
# T1 construct: host or cells: unnamed cells 'bearing the delta2 opioid receptor'
# T1 sequence (P32300 whole entry): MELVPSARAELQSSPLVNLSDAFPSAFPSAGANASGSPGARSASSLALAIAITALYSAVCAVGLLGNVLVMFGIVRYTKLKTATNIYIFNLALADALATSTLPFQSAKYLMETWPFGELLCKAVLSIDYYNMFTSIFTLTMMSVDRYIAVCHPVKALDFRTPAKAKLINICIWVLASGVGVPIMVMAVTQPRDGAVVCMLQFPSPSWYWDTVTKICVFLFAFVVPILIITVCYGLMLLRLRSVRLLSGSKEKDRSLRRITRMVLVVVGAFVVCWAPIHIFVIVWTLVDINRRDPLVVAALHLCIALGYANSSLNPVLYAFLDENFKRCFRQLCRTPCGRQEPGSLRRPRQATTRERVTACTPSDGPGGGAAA
# Experimental: Frozen spinach leaves were thawed and disrupted in fine particles a blender. This juice was further treated with ultrasounds to disrupt cells and proteins were recovered by acidic precipitation. These proteins were then digested by several enzymes, including pepsin and papain. The hydrolysate was purified (ultrafiltration), fractionated and stored before testing. Meanwhile, synthetic peptides were ordered from a manufacturer. The peptides and the hydrolysates were tested on cells bearing the delta2 opioid receptor and cell impedance was measured to evaluate the binding activity of the tested compounds (Law and Loh, 1993).
# The EC50 values (concentration producing a half-maximal specific response) and IC50 values (concentration causing a half-maximal inhibition of the control specific agonist response) were determined by non-linear regression analysis of the concentration-response curves generated with mean replicate values using Hill equation curve fitting (Y=D+[(A D)/(1+(C/C50)nH)], where Y=specific response, D=minimum specific response, A=maximum specific response, C=compound concentration, and C50=EC50 or IC50, and nH=slope factor).
# [2] = system: opioid receptor delta (DOR); assay: Scoring of DOR1 expression in RHE stimulated with cytokines; type: cell-based, human; details: JAK inhibitor I tested at 10 μM
# Experimental: In the present study, the effects of a peptide (YPLDLF, SEQ ID No 1) on the expression of opioid receptor delta (DOR) were researched on a reconstructed human epidermis (RHE) model under basal or stimulated conditions. More precisely, the RHE were stimulated by a mix of cytokines (IL-17+OSM+TNF-α) able to induce a strong inflammatory profile and a psoriatic phenotype in keratinocytes.
# Reconstructed human epidermis (RHE) of 11 days old was prepared according to a derived method described by Poumay et al. (2004). These RHE were cultivated at 37° C. and 5% of CO2 in a specific maintenance medium.
# The RHE treated under basal conditions were placed in assay medium containing or not (non-stimulated control) the peptide solutions and incubated for 54 hours. For inflammatory conditions, the RHE were placed in assay medium containing or not (stimulated control) the peptide solutions or the reference […] at 10 μM) and pre-incubated for 6 hours. The RHE were then stimulated with a mix of cytokines (IL-17+OSM+TNF-α at 3 ng/ml) and incubated for 48 hours. All experimental conditions were performed in n=3.
# At the end of incubation, the supernatants were collected and the RHE were washed in phosphate buffered saline solution (PBS) for immunohistofluorescence analysis. […]
compound,measurement,setting,value
"CCCCCCCCCCCCCC(=O)O[C@@H]1[C@@H](C)[C@@]2(O)[C@@H](C=C(CO)C[C@]3(O)C(=O)C(C)=C[C@@H]23)[C@@H]2C(C)(C)[C@]12OC(C)=O [PMA, Phorbol myristate acetate]",expression of DOR,[1],DOR was decreased after Phorbol myristate
"D-Penicillamine(2,5)-enkephalin [DPDPE, reference compound]",A (Hill curve fit parameter),delta2 opioid receptor,0.0
same,D (Hill curve fit parameter),delta2 opioid receptor,95.8
JAK inhibitor I [reference compound],inhibitory effect of the cytokine mix on OPRD1 expression,[2],reversed

# — patent US9107852B2, “Uses of agonists of delta opioid receptor in cosmetic and dermocosmetic field” (Induchem Holding AG, priority 2012, dated 2015)
